PMC10579241, “Impact of trifluoromethyl and sulfonyl groups on the biological activity of novel aryl-urea derivatives: synthesis, in-vitro, in-silico and SAR studies” (Scientific Reports, 2023)
Converted amounts (≈) assume the structure as drawn. Where two headings read alike, the source gives them in different places. Marks after values point to notes of the source that are not given here.

What was measured:
Bacillus mycoides [1] = assay: microbe, parasite or virus in culture; format: cell-based
Escherichia coli [2] = assay: Agar well diffusion, E. coli; format: cell-based; settings: Escherichia coli, read-out: Inhibition zones diameter
Candida albicans [3] = assay: Agar well diffusion, C. albicans; format: cell-based
Bacillus mycoides [4] = assay: microbe, parasite or virus in culture; format: cell-based; remark: listed apart in the source
Escherichia coli [5] = assay: MIC by serial dilution (agar wells), E. coli; format: cell-based
Candida albicans [6] = assay: MIC by serial dilution (agar wells), C. albicans; format: cell-based
colon cancer (HCT116) = assay: cells; format: cell-based; settings: Homo sapiens
skin cancer (A431) = assay: cells; format: cell-based; settings: Homo sapiens, 48 h
[7] = test system: hepatocellular carcinoma cell line (HePG2); assay: cells; format: cell-based; settings: Homo sapiens, 48 h
[8] = test system: osteosarcoma cell line (HOS); assay: cells; format: cell-based; settings: Homo sapiens, 48 h
in vitro = format: cell-based; settings: human, BJ1 normal skin fibroblast cells, 100 μg/mL
[9] = test system: normal skin fibroblast cell line (BJ1); assay: cells; format: cell-based; settings: Homo sapiens, Skin fibroblast, MTT, 48 h
TP53 = assay: qRT-PCR, TP53 in HCT116 cells; format: cell-based, human; settings: versus negative samples
Experimental: RNA was extracted from pancreas, prostate, lung and liver cell lines using a total RNA purification kit (Qiagen, Hilden, Germany) according to the manufacturer's instructions. An aliquot of RNA was diluted in RNase-free water to estimate RNA quantity. Aliquots were used immediately for reverse transcription (RT). cDNA synthesis was performed on extracted RNA, which was treated with DNase (Invitrogen, Germany) to remove any possible DNA contamination. The DNase-treated RNA was reverse transcribed into first-strand cDNA using the RevertAid First Strand cDNA Synthesis kit (Fermantas) according to the manufacturer's instructions. Determination of the pancreas, prostate, lung and liver cell line cDNA copy number was carried out using StepOne™ Real-Time PCR System from Applied Biosystems (Thermo Fisher Scientific, Waltham, MA USA). Gene expressions were detected by real-time PCR, which was performed using the Rotor-Gene Q system (Qiagen Company). A 25 µL reaction mixture consisted of 12.5 µL SYBR® Premix Ex TaqTM (TaKaRa, Biotech. Co. Ltd.), 0.5 µL of each primer (10 PMole) (Table 1), 1 µL cDNA (50 ng) and 10.5 µL RNase free water. The optimum amplification conditions were chosen empirically according to each tested gene. Generally, the amplification conditions include initial incubation (95.0 °C for 3 min), then 40 cycles of amplification with denaturation (95.0 °C for 15 s), annealing (55.0 °C for 30 s) and extension (72.0 °C for 30 s) steps then 71 cycles which started at 60.0 °C and then increased about 0.5 °C every 10 s up to 95.0 °C. Mean cycle threshold (Ct) values of triplicate samples are used for analysis. The Ct value indicates the fractional cycle number at which the amount of amplified target reaches a fixed threshold. Data from real-time PCR were analyzed using 2^−∆∆Ct method[38]–[40]. Data were represented as the fold change in target gene expression normalized to a House-Keeping gene (HKG) and relative to the control. β-actin was used as a HKG to normalize input RNA amount, RNA quality and reverse transcription efficiency.

FASN = assay: qRT-PCR, FASN in HCT116 cells; format: cell-based, human; settings: versus negative samples
HCT116 [10] = assay: DNA damage, comet assay, HCT116; format: cell-based, human
HCT116 [11] = assay: DNA fragmentation assay, HCT116; format: cell-based, human
[12] = read-out: Minimum inhibition concentration (MIC)
[13] = 0.00488 mg/mL, 150 µL in DMSO, 15 mm agar well
[14] = 0.00975 mg/mL, 150 µL in DMSO, 15 mm agar well
[15] = 0.0195 mg/mL, 150 µL in DMSO, 15 mm agar well
[16] = 0.0391 mg/mL, 150 µL in DMSO, 15 mm agar well
[17] = 0.0781 mg/mL, 150 µL in DMSO, 15 mm agar well
[18] = 0.1563 mg/mL, 150 µL in DMSO, 15 mm agar well
[19] = 0.3125 mg/mL, 150 µL in DMSO, 15 mm agar well
[20] = 0.625 mg/mL, 150 µL in DMSO, 15 mm agar well
[21] = 1.25 mg/mL, 150 µL in DMSO, 15 mm agar well
[22] = 2.50 mg/mL, 150 µL in DMSO, 15 mm agar well
[23] = 5.00 mg/mL, 150 µL in DMSO, 15 mm agar well
[24] = 10.0 mg/mL, 150 µL in DMSO, 15 mm agar well

Cc1ccc(S(=O)(=O)NC(=O)Nc2cc(C(F)(F)F)cc(C(F)(F)F)c2)cc1 [Compound 9, N-[(3,5-bis{Trifluoromethyl}phenyl)carbamoyl]-4-methylbenzenesulfonamide]
Inhibition zones diameter (Bacillus mycoides [1]; B. mycoides, 200 μL of 10 mg/mL in DMSO in 15 mm holes, overnight 37 °C): 41 ± 0.0 mm | zone of inhibition at 10000 µg/mL (Bacillus mycoides [1]; Bacillus mycoides, read-out: Inhibition zones diameter): 41 mm | zone of inhibition at 10000 µg/mL (Escherichia coli [2]): 37 ± 0.74 mm | Inhibition zones diameter (Candida albicans [3]; C. albicans, 200 μL of 10 mg/mL in DMSO in 15 mm holes, overnight 37 °C): 41 ± 0.21 mm | zone of inhibition at 10000 µg/mL (Candida albicans [3]; Candida albicans, read-out: Inhibition zones diameter): 41 mm | zone of inhibition at 4.88 µg/mL (Bacillus mycoides [4]; read-out: Inhibition zone): 0 mm | zone of inhibition at 9.75 µg/mL (Bacillus mycoides [4]; read-out: Inhibition zone): 0 mm | zone of inhibition at 19.5 µg/mL (Bacillus mycoides [4]; read-out: Inhibition zone): 16 mm | zone of inhibition at 39.1 µg/mL (Bacillus mycoides [4]; read-out: Inhibition zone): 17 mm | zone of inhibition at 78.1 µg/mL (Bacillus mycoides [4]; read-out: Inhibition zone): 21 mm | zone of inhibition at 156.3 µg/mL (Bacillus mycoides [4]; read-out: Inhibition zone): 25 mm | zone of inhibition at 312.5 µg/mL (Bacillus mycoides [4]; read-out: Inhibition zone): 28 mm | zone of inhibition at 625 µg/mL (Bacillus mycoides [4]; read-out: Inhibition zone): 29 mm | zone of inhibition at 1250 µg/mL (Bacillus mycoides [4]; read-out: Inhibition zone): 30 mm | zone of inhibition at 2500 µg/mL (Bacillus mycoides [4]; read-out: Inhibition zone): 32 mm | zone of inhibition at 5000 µg/mL (Bacillus mycoides [4]; read-out: Inhibition zone): 33 mm | zone of inhibition at 10000 µg/mL (Bacillus mycoides [4]; read-out: Inhibition zone): 33 mm | MIC (Bacillus mycoides [4]; [12]): 19.5 µg/mL (≈ 45.7 µM) | zone of inhibition at 4.88 µg/mL (Escherichia coli [5]; [13]): 0 mm | zone of inhibition at 9.75 µg/mL (Escherichia coli [5]; [14]): 0 mm | zone of inhibition at 19.5 µg/mL (Escherichia coli [5]; [15]): 0 mm | zone of inhibition at 39.1 µg/mL (Escherichia coli [5]; [16]): 0 mm | zone of inhibition at 78.1 µg/mL (Escherichia coli [5]; [17]): 16 mm | zone of inhibition at 156.3 µg/mL (Escherichia coli [5]; [18]): 20 mm | zone of inhibition at 312.5 µg/mL (Escherichia coli [5]; [19]): 25 mm | zone of inhibition at 625 µg/mL (Escherichia coli [5]; [20]): 30 mm | zone of inhibition at 1250 µg/mL (Escherichia coli [5]; [21]): 32 mm | zone of inhibition at 2500 µg/mL (Escherichia coli [5]; [22]): 33 mm | zone of inhibition at 5000 µg/mL (Escherichia coli [5]; [23]): 34 mm | zone of inhibition at 10000 µg/mL (Escherichia coli [5]; [24]): 35 mm | MIC (Escherichia coli [5]; [12]): 78.1 µg/mL (≈ 183 µM) | zone of inhibition at 4.88 µg/mL (Candida albicans [6]; [13]): 0 mm | zone of inhibition at 9.75 µg/mL (Candida albicans [6]; [14]): 0 mm | zone of inhibition at 19.5 µg/mL (Candida albicans [6]; [15]): 0 mm | zone of inhibition at 39.1 µg/mL (Candida albicans [6]; [16]): 16 mm | zone of inhibition at 78.1 µg/mL (Candida albicans [6]; [17]): 20 mm | zone of inhibition at 156.3 µg/mL (Candida albicans [6]; [18]): 23 mm | zone of inhibition at 312.5 µg/mL (Candida albicans [6]; [19]): 25 mm | zone of inhibition at 625 µg/mL (Candida albicans [6]; [20]): 28 mm | zone of inhibition at 1250 µg/mL (Candida albicans [6]; [21]): 32 mm | zone of inhibition at 2500 µg/mL (Candida albicans [6]; [22]): 34 mm | zone of inhibition at 5000 µg/mL (Candida albicans [6]; [23]): 35 mm | zone of inhibition at 10000 µg/mL (Candida albicans [6]; [24]): 36 mm | MIC (Candida albicans [6]; [12]): 39.1 µg/mL (≈ 91.7 µM) | mortality at 100 µg/mL (colon cancer (HCT116); HCT-116, 48 h, 100 μg/mL): 100% | IC50 (colon cancer (HCT116); HCT-116, MTT, 48 h): 17.8 ± 0.35 µM | mortality at 100 µg/mL (skin cancer (A431); A-431, 100 μg/mL): 100% | IC50 (skin cancer (A431); A-431, MTT): 113.3 ± 0.68 µM | mortality at 100 µg/mL ([7]; 100 μg/mL): 100% | IC50 ([7]; MTT): 12.4 ± 0.17 µM | mortality at 100 µg/mL ([8]; 100 μg/mL): 100% | IC50 ([8]; MTT): 17.6 ± 0.24 µM | mortality at 48 h, 100 µg/mL (in vitro): 28 ± 0.61% | IC50 [9]: 52.5 ± 0.74 µM | TP53 gene expression level (TP53): suppression | FASN gene expression level (FASN): suppression | DNA damaged cells % (mean ± SEM) (HCT116 [10]): 19.75 ± 1.25^b % | Class 0 (no tail), number of cells (HCT116 [10]; of 400 cells analyzed): 321 | Class 1 (tail length < diameter of nucleus), number of cells (HCT116 [10]; of 400 cells analyzed): 37 | Class 2 (tail length between 1 and 2 × the diameter of nucleus), number of cells (HCT116 [10]; of 400 cells analyzed): 24 | Class 3 (tail length > 2 × the diameter of nucleus), number of cells (HCT116 [10]; of 400 cells analyzed): 18 | No. of cells, Comets (HCT116 [10]; of 400 cells analyzed): 79 | Change (DNA fragmentation versus untreated cells) (HCT116 [11]): 18.10 | DNA fragmentation % M ± SEM (HCT116 [11]; IC50 concentration, 24 h): 29.0 ± 0.54^a % | Inhibition (HCT116 [11]; doxorubicin = 0.00): -13.81
